The source of these data is ChEMBL document CHEMBL1134574, “Synthesis and characterization of non-steroidal ligands for the glucocorticoid receptor: selective quinoline derivatives with prednisolone-equivalent functional activity” (J Med Chem, 2001).

For assay [1], the target named is T1, Glucocorticoid receptor (Homo sapiens, UniProt P04150).
T1 sequence (P04150 whole entry): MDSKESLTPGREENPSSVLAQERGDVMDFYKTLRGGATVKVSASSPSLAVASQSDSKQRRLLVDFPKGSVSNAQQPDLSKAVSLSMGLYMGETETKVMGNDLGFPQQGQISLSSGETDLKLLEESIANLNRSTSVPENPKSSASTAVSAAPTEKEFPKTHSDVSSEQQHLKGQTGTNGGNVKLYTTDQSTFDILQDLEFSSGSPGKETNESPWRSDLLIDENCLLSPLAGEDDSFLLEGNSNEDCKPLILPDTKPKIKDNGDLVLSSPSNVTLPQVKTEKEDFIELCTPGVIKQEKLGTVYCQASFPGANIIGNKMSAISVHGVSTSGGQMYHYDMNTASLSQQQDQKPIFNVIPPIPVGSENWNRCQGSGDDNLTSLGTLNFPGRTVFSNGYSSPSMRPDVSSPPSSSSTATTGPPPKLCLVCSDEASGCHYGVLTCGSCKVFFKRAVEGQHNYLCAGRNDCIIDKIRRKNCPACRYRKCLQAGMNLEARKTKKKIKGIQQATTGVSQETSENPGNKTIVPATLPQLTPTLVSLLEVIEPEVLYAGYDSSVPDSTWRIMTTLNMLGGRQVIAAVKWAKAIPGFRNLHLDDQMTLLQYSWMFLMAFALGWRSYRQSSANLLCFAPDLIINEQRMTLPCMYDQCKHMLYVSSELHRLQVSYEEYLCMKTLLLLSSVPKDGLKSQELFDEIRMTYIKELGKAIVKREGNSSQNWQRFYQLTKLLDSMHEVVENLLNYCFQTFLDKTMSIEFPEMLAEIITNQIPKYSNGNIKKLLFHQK
As to the kind of experiment: Glucocorticoid-induced aromatase activity in human skin fibroblasts. It counts as functional.

Assay [2] addresses T1, Glucocorticoid receptor. As to the kind of experiment: Binding affinity for glucocorticoid receptor.
For assay [3], the target named is T1, Glucocorticoid receptor. As to the kind of experiment: Transcriptional activation in CV-1 cells expressing glucocorticoid receptor. The class given is functional, cell-based.
Assay [4] concerns the target T1, Glucocorticoid receptor. Nature of the assay: Repression activity of GR ligand with interleukin-6 receptor in native cell assay using Dexamethasone was determined as maximal potency. It counts as functional.
In assay [5] the target is T1, Glucocorticoid receptor. Nature of the assay: Transcriptional repression activity in HEP G2 cells expressing glucocorticoid receptor compared to Dexamethasone. The class given is functional, cell-based, HepG2.
Assay [6] has as its target T2, Mineralocorticoid receptor (Homo sapiens, UniProt P08235).
T2 sequence (P08235 whole entry): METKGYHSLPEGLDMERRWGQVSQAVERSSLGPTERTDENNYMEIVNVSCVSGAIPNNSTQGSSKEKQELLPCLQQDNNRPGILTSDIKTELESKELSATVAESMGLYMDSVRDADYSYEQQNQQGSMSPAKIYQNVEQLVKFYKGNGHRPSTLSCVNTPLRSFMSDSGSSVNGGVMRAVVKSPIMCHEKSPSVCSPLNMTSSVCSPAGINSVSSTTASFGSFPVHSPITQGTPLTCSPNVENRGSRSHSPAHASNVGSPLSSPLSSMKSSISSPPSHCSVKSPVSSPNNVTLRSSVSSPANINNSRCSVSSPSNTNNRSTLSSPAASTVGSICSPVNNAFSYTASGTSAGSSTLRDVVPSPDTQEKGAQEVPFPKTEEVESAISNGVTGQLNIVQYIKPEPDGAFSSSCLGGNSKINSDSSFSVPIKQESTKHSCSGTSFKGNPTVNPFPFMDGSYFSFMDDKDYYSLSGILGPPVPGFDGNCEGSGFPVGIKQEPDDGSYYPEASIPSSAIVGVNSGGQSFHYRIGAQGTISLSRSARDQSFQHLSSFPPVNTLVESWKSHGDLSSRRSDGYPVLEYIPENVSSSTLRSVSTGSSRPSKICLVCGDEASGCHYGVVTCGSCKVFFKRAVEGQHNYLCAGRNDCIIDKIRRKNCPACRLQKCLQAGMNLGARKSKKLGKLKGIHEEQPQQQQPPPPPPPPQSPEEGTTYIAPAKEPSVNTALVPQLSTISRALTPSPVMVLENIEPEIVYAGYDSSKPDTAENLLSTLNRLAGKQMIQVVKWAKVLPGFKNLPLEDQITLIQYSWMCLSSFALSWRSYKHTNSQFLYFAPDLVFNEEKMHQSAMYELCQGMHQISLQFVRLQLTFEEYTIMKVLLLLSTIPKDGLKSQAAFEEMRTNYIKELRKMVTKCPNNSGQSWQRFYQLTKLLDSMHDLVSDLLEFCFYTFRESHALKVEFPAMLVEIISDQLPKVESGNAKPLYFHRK
As to the kind of experiment: Binding affinity for mineralocorticoid receptor.

A further assay addresses T3, Progesterone receptor (Homo sapiens, UniProt P06401).
T3 sequence (P06401 whole entry): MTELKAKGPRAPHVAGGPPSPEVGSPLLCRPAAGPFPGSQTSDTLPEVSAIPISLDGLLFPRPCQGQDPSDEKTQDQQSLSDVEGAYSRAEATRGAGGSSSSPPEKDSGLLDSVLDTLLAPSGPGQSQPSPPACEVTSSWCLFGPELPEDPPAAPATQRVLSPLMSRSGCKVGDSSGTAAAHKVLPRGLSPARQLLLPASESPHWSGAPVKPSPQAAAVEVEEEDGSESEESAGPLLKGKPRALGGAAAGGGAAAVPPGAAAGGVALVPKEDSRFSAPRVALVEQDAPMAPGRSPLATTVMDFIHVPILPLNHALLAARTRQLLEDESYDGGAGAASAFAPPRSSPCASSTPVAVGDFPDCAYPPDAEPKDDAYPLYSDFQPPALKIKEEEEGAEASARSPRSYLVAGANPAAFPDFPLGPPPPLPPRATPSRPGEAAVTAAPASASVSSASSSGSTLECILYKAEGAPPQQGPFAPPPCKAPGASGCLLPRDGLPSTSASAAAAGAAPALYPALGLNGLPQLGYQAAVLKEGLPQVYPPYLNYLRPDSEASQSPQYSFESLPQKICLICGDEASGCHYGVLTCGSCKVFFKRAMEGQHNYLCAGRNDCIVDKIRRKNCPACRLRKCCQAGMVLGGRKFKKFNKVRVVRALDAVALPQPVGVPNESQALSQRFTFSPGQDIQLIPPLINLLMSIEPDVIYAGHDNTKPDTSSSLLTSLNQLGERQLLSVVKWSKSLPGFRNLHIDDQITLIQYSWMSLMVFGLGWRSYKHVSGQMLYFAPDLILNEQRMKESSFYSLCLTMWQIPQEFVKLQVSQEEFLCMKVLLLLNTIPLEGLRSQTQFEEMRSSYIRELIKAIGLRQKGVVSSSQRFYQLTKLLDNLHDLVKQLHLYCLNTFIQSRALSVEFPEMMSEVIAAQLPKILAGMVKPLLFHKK
Nature of the assay: Binding affinity for progesterone receptor.

Structures are written as SMILES. pIC50, pKi: −log10 of the molar value.

In the case of `COc1cccc2c1-c1ccc3c(c1C(c1cccc(OCSC)c1)O2)C(C)=CC(C)(C)N3` (configuration not stated), the pIC50 was 6.85 at Glucocorticoid receptor [1], 8.05 against Glucocorticoid receptor [3], 7.80 at Glucocorticoid receptor [4] and 8.40 against Glucocorticoid receptor [5]. Further, the pKi was 8.40 at Glucocorticoid receptor [2], 5.42 in assay [6] and less than 5.30 on Progesterone receptor.

The pIC50 is −log10 of the IC50, conventionally taken in molar units. The low end stands for a high IC50, the high end for a low IC50. What is called pKi is the negative decadic logarithm of the Ki, by convention in mol/L. Low readings indicate a high Ki, high ones a low Ki.
